Reference: patent publication US10017507B2, “Diaza-benzofluoranthrene compounds” (HARBIN PHARMACEUTICAL GROUP CO., LTD. GENERAL …, priority 2015, dated 2018)
Values belong to the compound of their own block, whether it stands above or below them.

Experiments:
[1] = system: pentylenetetrazole-kindling model of epilepsy; assay: Inhibition effect on pentylenetetrazole-kindling model of epilepsy in cynomolgus monkey; assay type: in vivo; conditions: 10 mg/kg; for latency prolonged than the Vehicle group / latency, relative increase versus Vehicle group / lasting time of convulsions shortened compared with the Vehicle Group / lasting time of convulsions, relative reduction versus Vehicle Group / times of clonic and tonic convulsion reduced compared with the Vehicle Group / times of clonic and tonic convulsion, relative reduction versus Vehicle Group: versus Vehicle group; for latency for the onset of epilepsy seizure: continuous administration of 8 days, pentylenetetrazole 40 mg/kg s.c.; for latency for the onset of epilepsy seizure / lasting time of clonic convulsions and tonic convulsions / times of clonic convulsion and tonic convulsion: Mean±SEM; for lasting time of clonic convulsions and tonic convulsions: pentylenetetrazole-kindled; for times of clonic convulsion and tonic convulsion: within 24 hours after pentylenetetrazol
Source text: Test 3: Inhibition Effect on Pentylenetetrazole-Kindling Model of Epilepsy in Cynomolgus Monkey In this test, six male cynomolgus monkeys were selected, and each monkey was intragastrically administrated by nasal feeding. Besides pentylenetetrazole which was administrated by subcutaneous injection, the compound of Example 29 and carbamazepine were consecutively administered for 8 days, respectively. The monkeys were respectively given a solvent prior to the first administration, and were injected subcutaneously with pentylenetetrazole immediately after the last administration. The administration interval between two tests was about 10 days. Pentylenetetrazine was administered once to induce epilepsy prior to the first administration of the compound of Example 29. The dosage was calculated according to the latest weight of the animal, and the date of first administration was designated as Day 1. Surgical procedure: the animals were fed adaptively for at least one week in feeding facilities, and then they were anesthetized during preoperative preparation according to the company standards. The main operation procedures were as follows: cutting the head skin, fully exposing the skull, stripping the periosteum, and cleaning the skull surface with a dry absorbent cotton; drilling 2 holes on the skull of the cynomolgus monkey with cranial drill, implanting a brain electrode, and fixing it with dental cement; then burying two myoelectric electrodes into the neck muscles of the cynomolgus monkey, and burying eye-electric electrodes into the bilateral eye muscles, fixing the implant body in the abdominal muscle layer. Postoperative care was performed according to the company standards. The raw data was collected by Ponemah of DSI system, and analyzed and revised by Neuronscore. The data was shown by mean±standard error (Mean±SEM), statistical analysis was performed by t-test and ANOVA. P<0.05 indicated a significant difference, P<0.01 indicated a very significant difference, P<0.001 indicated an extremely significant difference. The characteristics of electroencephalic response and electroencephalic energy for pentylenetetrazole-kindling epilepsy were observed and analyzed, and then a comparison was made between Example 29 and carbamazepine in terms of the latency for the onset of epilepsy seizure, and the times and lasting time of clonic convulsions and tonic convulsions in cynomolgus monkey pentylenetetrazole-kindling model, so as to compare the pharmacodynamic inhibitory effect of Example 29 and carbamazepine on cynomolgus monkey pentylenetetrazole-kindling model. After the cynomolgus monkeys were injected subcutaneously with 40 mg/kg pentylenetetole on the back and were induced epilepsy-like behaviors, the electroencephalic response, electromyogrphic response and locomotor activity were detected by DSI wireless remote sensing signal recording system. […] The behaviors were divided into paroxysmal activity, clonic convulsion and tonic convulsions according to the status of epilepsy. The changes of electroencephalic energy within 4-24 Hz were statistically analyzed when cynomolgus monkeys suffered epileptic seizure within 24 hours after injection of pentylenetetrazole.

[2] = Comparison of pharmacokinetics in Beagle dogs; assay type: in vivo; conditions: for clearance / half-life / bioavailability: male, dog, plasma; for half-life: read-out: Half-life period (converted)
Protocol: Test 2: Comparison of Pharmacokinetics in Beagle Dogs
In this study, male Beagle dogs were given the compounds of the examples and vinpocetine (as a control compound) by intravenous injection or oral administration, respectively, then the drug concentration in plasma at different time points was determined by the LC/MS/MS method, so as to investigate the pharmacokinetic characteristics of the two test drugs in Beagle dogs.
Eight healthy adult Beagle dogs with a weight of 7.0 to 10.83 kg (purchased from Beijing Marshall Biotechnology Co., Ltd.) were selected. The formulation for intravenous injection group was DMSO: PEG400: water=5:20:75. A solvent was added to the test compound which had been accurately weighed, after vortex oscillation and ultrasound, a clear solution with a final concentration of 1.0 mg/mL was obtained. The solution was filtered with a filter membrane of 0.22 μm and stored at room temperature for use. The formulation for oral administration group was PEG 400: Tween 80: H2O=40:10:50. A solvent was added to the test compound which had been accurately weighed, after vortex oscillation and ultrasound, a clear solution with a final concentration of 1.5 mg/mL was obtained. The formulations for both the intravenous injection and the oral administration were formulated on the day of administration. The intravenous dose was 1.0 mg/kg, and the oral dose was 3.0 mg/kg. The whole blood for each test compound was respectively taken at 0.083 (for intravenous injection only), 0.25, 0.5, 1, 2, 4, 6, 8 and 24 hours after administration. The whole blood was centrifuged (3000 g, 15 min, 4° C.) to obtain the plasma. The drug concentration in each plasma sample was determined by LC/MS/MS method. The data about drug concentration in plasma was processed by WinNonlin™ Version 6.3 (Pharsight, Mountain View, Calif.) software, using a non-compartmental model, and the pharmacokinetic parameters were calculated by using the linear-logarithmic trapezoidal method.

[3] = biological target: T1, PDE1A (Homo sapiens, UniProt P54750); assay: In vitro detection of phosphodiesterase (PDE): PDE1A enzyme activity by fluorescence polarization immunoassay; assay type: biochemical; conditions: human-derived enzyme, cAMP or cGMP substrate; read-out: IC50s for PDE1
T1 construct: purchased SignalChem
How it was run: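 Human PDE1A (enzyme solution 3 pM) was preincubated 10 min at RT with compound in 10 mM Tris-HCl pH 7.5, 5 mM MgCl2, 0.01% Brij 35, 1 mM DTT, 1% DMSO, with Ca2+-calmodulin cofactor. Reaction ran 1 h at RT on […] cAMP or cGMP, then 90 min with antibody/tracer. FP at Ex/Em 620/688 was converted to AMP/GMP via standard curve to give IC50.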

- area under the concentration-time curve (0-inf) ([2]; intravenous injection 1 mg/kg): 0.588 µM·h
- clearance ([2]; intravenous injection 1 mg/kg): 80.5 mL/min/kg
- half-life ([2]; intravenous injection 1 mg/kg): 6.03 h
- bioavailability ([2]; oral administration 3 mg/kg): 12.3%
- Peak concentration ([2]; oral administration 3 mg/kg): 142 nM
- Time to Peak ([2]; oral administration 3 mg/kg): 0.5 h
- area under the concentration-time curve (0-inf) ([2]; oral administration 3 mg/kg): 0.216 µM·h
Compound: CCOC(=O)C1=C[C@]2(CC)CCCN3CCc4c(n1c1ccccc41)[C@@H]32 [Vinpocetine, reference compound]

- IC50 [3]: 1 to 20 µM
- area under the concentration-time curve (0-inf) ([2]; intravenous injection 1 mg/kg): 4.04 µM·h
- clearance ([2]; intravenous injection 1 mg/kg): 12 mL/min/kg
- half-life ([2]; intravenous injection 1 mg/kg): 9.42 h
- bioavailability ([2]; oral administration 3 mg/kg): 37.5%
- Peak concentration ([2]; oral administration 3 mg/kg): 1299 nM
- Time to Peak ([2]; oral administration 3 mg/kg): 1.0 h
- area under the concentration-time curve (0-inf) ([2]; oral administration 3 mg/kg): 4.545 µM·h
- half-life longer than that of vinpocetine ([2]; relative to vinpocetine): 56%
- plasma clearance lower than that of vinpocetine ([2]; relative to vinpocetine): about 85%
Compound: CC[C@@]12C=C(c3nc(C)no3)n3c4c(c5ccccc53)CCN(CCC1)[C@H]42 [Example 29, 5-((4^1S,13aS)-13a-ethyl-2,3,4^1,5,6,13a-hexahydro-1H-indolo[3,2,1-de]pyrido[3,2,1-ij][1,5]naphthyridin-12-yl)-3-methyl-1,2,4-oxadiazole]
- latency prolonged than the Vehicle group ([1]; 8 days): 39.24 min
- latency, relative increase versus Vehicle group ([1]; 8 days): 160%
- latency prolonged than the carbamazepine group ([1]; 8 days, versus carbamazepine group): 18.9 min
- latency for the onset of epilepsy seizure [1]: 64.10 ± 13.21 min
- lasting time of clonic convulsions and tonic convulsions [1]: 2.61 ± 0.99 min
- lasting time of convulsions shortened compared with the Vehicle Group [1]: 9.07 min
- lasting time of convulsions, relative reduction versus Vehicle Group [1]: 78%
- lasting time of convulsions shortened compared with the carbamazepine group ([1]; versus carbamazepine group): about 2.1 min
- times of clonic convulsion and tonic convulsion [1]: 25.7±7.07
- times of clonic and tonic convulsion reduced compared with the Vehicle Group ([1]; within 24 hours): about 82 times
- times of clonic and tonic convulsion, relative reduction versus Vehicle Group ([1]; within 24 hours): 76%
- times of clonic and tonic convulsion reduced compared with the carbamazepine group ([1]; within 24 hours, versus carbamazepine group): about 14 times

- IC50 [3]: 1 to 20 µM
Compound: CC[C@@]12C=C(c3cc(C)no3)n3c4c(c5ccccc53)CCN(CCC1)[C@H]42 [Example 47, 5-((4^1S,13aS)-13a-ethyl-2,3,4^1,5,6,13a-hexahydro-1H-indolo[3,2,1-de]pyrido[3,2,1-ij][1,5]naphthyridin-12-yl)-3-methylisoxazole]

- IC50 [3]: ≤ 1 µM
Compound: CC[C@@]12C=C(c3nc(C)c(C(=O)N(C)C)o3)n3c4c(c5ccccc53)CCN(CCC1)[C@H]42 [Example 65, 2-((4^1S,13aS)-13a-ethyl-2,3,4^1,5,6,13a-hexahydro-1H-indolo[3,2,1-de]pyrido[3,2,1-ij][1,5]naphthyridin-12-yl)-N,N,4-trimethyloxazole-5-carboxamide]

- IC50 [3]: 20 to 100 µM
Compound: CC[C@@]12C=C(c3cn4ccc(C(F)(F)F)cc4n3)n3c4c(c5ccccc53)CCN(CCC1)[C@H]42 [Example 44, (4^1S,13aS)-13a-ethyl-12(7-(trifluoromethyl)imidazo[1,2-a]pyridin-2-yl)-2,3,4^1,5,6,13a-hexahydro-1H-indolo[3,2,1-de]pyrido[3,2,1-ij][1,5]naphthyridine]

- IC50 [3]: 20 to 100 µM
Compound: CC[C@@]12C=C(c3nc(C)no3)n3c4c(c5c(S(=O)(=O)NC)cccc53)CCN(CCC1)[C@H]42 [Example 82, (4^1S,13aS)-13a-ethyl-N-methyl-12-(3-methyl-1,2,4-oxadiazol-5-yl)-2,3,4^1,5,6,13a-hexahydro-1H-indolo[3,2,1-de]pyrido[3,2,1-ij][1,5]naphthyridin-7-sulfonamide]

- IC50 [3]: 1 to 20 µM
Compound: CCC/C(=N\OC)C1=C[C@]2(CC)CCCN3CCc4c(n1c1ccccc41)[C@@H]32 [Example 48, 1-((4^1S,13aS)-13a-ethyl-2,3,4^1,5,6,13a-hexahydro-1H-indolo[3,2,1-de]pyrido[3,2,1-ij][1,5]naphthyridin-12-yl)butan-1-one-O-methyl oxime]

The remaining lines, values behind:

Compound: NC(=O)N1c2ccccc2C=Cc2ccccc21 [carbamazepine, reference compound]
- latency prolonged than the Vehicle group ([1]; 8 days): 20.34 min
- latency, relative increase versus Vehicle group ([1]; 8 days): 81%
- latency for the onset of epilepsy seizure [1]: 45.20 ± 9.11 min
- lasting time of clonic convulsions and tonic convulsions [1]: 4.71 ± 2.35 min
- lasting time of convulsions shortened compared with the Vehicle Group [1]: 6.97 min
- lasting time of convulsions, relative reduction versus Vehicle Group [1]: 60%
- times of clonic convulsion and tonic convulsion [1]: 39.20±14.92
- times of clonic and tonic convulsion reduced compared with the Vehicle Group ([1]; within 24 hours): about 68 times
- times of clonic and tonic convulsion, relative reduction versus Vehicle Group ([1]; within 24 hours): 63%

Compound: (4^1S,13aS)-13a-ethyl-12-(1-methyl-1H-pyrazol-3-yl)-2,3,4^1,5,6,13a-hexahydro-1H-indolo[3,2,1-de]pyrido[3,2,1-ij][1,5]naphthyridine, and (4^1S,13aS)-13a-ethyl-12-(1-methyl-1H-pyrazol-5-yl)-2,3,4^1,5,6,13a-hexahydro-1H-indolo[3,2,1-de]pyrido[3,2,1-ij][1,5]naphthyridine [Example 46]
- IC50 [3]: 20 to 100 µM

Compound: CC[C@@]12C=C(c3ncc[nH]3)n3c4c(c5ccccc53)CCN(CCC1)[C@H]42 [Example 3, (4^1S,13aS)-13a-ethyl-12-(1H-imidazol-2-yl)-2,3,4^1,5,6,13a-hexahydro-1H-indolo[3,2,1-de]pyrido[3,2,1-ij][1,5]naphthyridine]
- IC50 [3]: > 100 µM

Compound: (4^1S,13aS)-13a-ethyl-N-(3-methoxylpropyl)-12-(3-methyl-1,2,4-oxadiazol-5-yl)-2,3,4^1,5,6,13a-hexahydro-1H-indolo[3,2,1-de]pyrido[3,2,1-ij][1,5]naphthyridin-8-sulfonamide [Example 81]
- IC50 [3]: 20 to 100 µM

Compound: CC[C@@]12C=C(c3noc(=O)[nH]3)n3c4c(c5ccccc53)CCN(CCC1)[C@H]42 [Example 18, 3-((4^1S,13aS)-13a-ethyl-2,3,4^1,5,6,13a-hexahydro-1H-indolo[3,2,1-de]pyrido[3,2,1-ij][1,5]naphthyridin-12-yl)-1,2,4-oxadiazol-5 (4H)-one]
- IC50 [3]: > 100 µM

Compound: CC[C@@]12C=C(c3noc(C4CCOCC4)n3)n3c4c(c5ccccc53)CCN(CCC1)[C@H]42 [Example 23, 3-((4^1S,13aS)-13a-ethyl-2,3,4^1,5,6,13a-hexahydro-1H-indolo[3,2,1-de]pyrido[3,2,1-ij][1,5]naphthyridin-12-yl)-5-(tetrahydro-2H-pyran-4-yl)-1,2,4-oxadiazole]
- IC50 [3]: 1 to 20 µM
